Data from PMC5130005, “Indolin-2-one compounds targeting thioredoxin reductase as potential anticancer drug leads” (Oncotarget, 2016).

Columns and labels:
MCF-7 cells = experiment: MTT cell viability assay, MCF-7 cells; assay type: cell-based; conditions: Homo sapiens, MCF7, 72 h, mean ± SD of 3 experiments; for GI50: read-out: GI50 (50% growth inhibition concentration), MCF-7 cells; for CC50: read-out: LC50 (50% lethal concentration), MCF-7 cells
Procedure: (§1) HCT 116 and MCF-7 cells were seeded in 96-well plates at a density of 1 × 10^4 cells/well and allowed to grow for 20-24 h before addition of test compounds. DMSO stocks of indolin-2-one compounds were serially diluted in medium each time an assay was performed. Cell viability was determined at the time of compound addition (time 0) and after 72 h of compound treatment by reduction of 3-(4,5-dimethylthiazol-2-yl)-2,5-diphenyltetrazolium bromide (MTT) by dehydrogenases in viable cells. MTT was added into each well (final concentration 400 μg/ml) and the plates were incubated for 4 h at 37°C. The supernatants were aspirated and upon solubilization of the formed formazan crystals in DMSO:glycine buffer pH 10.5 (ratio 4:1), absorbance at 550 nm was measured. 50% growth inhibition concentrations (GI50) and 50% lethal concentrations (LC50) values were calculated.

recombinant rat TrxR [1] = molecular target: T1, recombinant rat TrxR (Rattus norvegicus, UniProt O89049); experiment: in vitro TrxR DTNB reduction assay; assay type: biochemical; conditions: 30 min incubation, 100 nM recombinant rat TrxR, 200 μM NADPH, read-out: TrxR inhibition IC50
T1 construct: made in house
T1 sequence (O89049 1-499): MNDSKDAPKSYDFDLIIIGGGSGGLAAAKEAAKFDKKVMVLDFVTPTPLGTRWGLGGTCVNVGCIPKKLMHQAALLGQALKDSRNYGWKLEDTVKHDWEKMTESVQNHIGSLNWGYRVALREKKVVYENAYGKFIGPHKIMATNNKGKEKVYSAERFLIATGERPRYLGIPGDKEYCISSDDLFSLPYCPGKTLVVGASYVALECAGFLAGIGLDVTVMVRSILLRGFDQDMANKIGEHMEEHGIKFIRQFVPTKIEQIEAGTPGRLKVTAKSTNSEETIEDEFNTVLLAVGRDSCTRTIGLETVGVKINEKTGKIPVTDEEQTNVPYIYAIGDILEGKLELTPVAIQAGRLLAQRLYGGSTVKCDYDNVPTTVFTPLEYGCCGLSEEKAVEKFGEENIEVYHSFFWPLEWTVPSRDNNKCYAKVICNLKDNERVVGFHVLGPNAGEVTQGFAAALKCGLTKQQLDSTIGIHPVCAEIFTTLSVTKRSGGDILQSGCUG
Procedure: In a volume of 100 μl of 50 mM Tris-HCl pH 7.5, 2 mM EDTA buffer (TE buffer), compounds of concentrations 1-100 μM were incubated with 100 nM recombinant rat TrxR and 200 μM NADPH at room temperature in 96-well plates for 30 and 60 min. The incubation was terminated by addition of 100 μl per well of 10 mM DTNB, 200 μM NADPH solution in TE buffer and immediately followed by measurement of linear increase of absorbance at 412 nm for the initial 2 min using the VersaMax microplate reader (Molecular Devices). The results were expressed as % of TrxR activity of drug-treated sample over that of DMSO control. The 50% inhibition concentration (IC50) values were calculated.

HCT 116 cells = experiment: MTT cell viability assay, HCT 116 cells; assay type: cell-based; conditions: Homo sapiens, 72 h, mean ± SD of 3 experiments; for GI50: read-out: GI50 (50% growth inhibition concentration), HCT 116 cells
Procedure: as §1

recombinant rat TrxR [2] = molecular target: T1, recombinant rat TrxR; experiment: NADPH oxidase activity of recombinant rat TrxR (substrate test); assay type: biochemical; conditions: 8 μM juglone, 15 nM TrxR, 250 μM NADPH, 20 min
Procedure: In a volume of 198 μl of 15 nM recombinant rat TrxR and 250 μM NADPH in TE buffer, 2 μl of diluted DMSO stocks of juglone and compounds 4 and 5 was added to final concentrations of 8 μM (for julgone) and 100 μM (for compounds 4 and 5). The consumption of NADPH was immediately monitored at 340 nm for 20 min using the VersaMax microplate reader. The linear decrease in NADPH absorbance was used for calculating NADPH consumption and expressed as % of activity of drug-treated sample over that of DMSO-treated sample.

| Compound | GI50 (MCF-7 cells) | CC50 (MCF-7 cells) | IC50 (recombinant rat TrxR [1]) | LC50 (50% lethal concentration) (HCT 116 cells) | GI50 (HCT 116 cells) | rate of NADPH consumption of recombinant TrxR (recombinant rat TrxR [2]) |
| --- | --- | --- | --- | --- | --- | --- |
| CCN1C(=O)/C(=C/C(C)=O)c2ccccc21 [Compound 2] | 7.9 ± 1.7 µM | 25 ± 1.6 µM | 10.2 ± 1.8 µM | 9.7 ± 0.1 µM | 4.2 ± 0.5 µM |  |
| CC(=O)/C=C1/C(=O)N(C(C)C)c2ccccc21 [Compound 3] | 7.1 ± 0.6 µM | 22.4 ± 0.6 µM | 15 ± 1.4 µM | 9.8 ± 0.1 µM | 5.3 ± 0.1 µM |  |
| Cc1ccccc1C(=O)/C=C1/C(=O)N(C)c2ccccc21 [Compound 7] | 17.3 ± 4.6 µM | 27.9 ± 1.5 µM | 19 ± 2.4 µM | 27.8 ± 0.8 µM | 12.4 ± 2.1 µM |  |
| Cc1cccc(C(=O)/C=C2/C(=O)N(C)c3ccccc32)c1 [Compound 8] | 14 ± 0.6 µM | 27.9 ± 0.6 µM | 22.5 ± 0.4 µM | 28 ± 1 µM | 10.4 ± 2.6 µM |  |
| Cc1ccc(C(=O)/C=C2/C(=O)N(C)c3ccccc32)cc1 [Compound 9] | 10.5 ± 0.8 µM | 28.4 ± 0.8 µM | 21.6 ± 4.4 µM | 28.6 ± 0.8 µM | 10.5 ± 1.2 µM |  |
| CCc1ccc(C(=O)/C=C2/C(=O)N(C)c3ccccc32)cc1 [Compound 10] | 10.4 ± 0.6 µM | 30.4 ± 6.2 µM | 19.1 ± 0.4 µM | 28.8 ± 1.1 µM | 11.9 ± 1.1 µM |  |
| CC(C)c1ccc(C(=O)/C=C2/C(=O)N(C)c3ccccc32)cc1 [Compound 11] | 10.5 ± 1.7 µM | 27 ± 0.4 µM | 25.2 ± 5.4 µM | 26.7 ± 1.7 µM | 14.4 ± 1.8 µM |  |
| CCCCc1ccc(C(=O)/C=C2/C(=O)N(C)c3ccccc32)cc1 [Compound 12] | 16.5 ± 4 µM | 81.2 ± 9.7 µM | > 100 µM | 26.7 ± 0.8 µM | 13.5 ± 2.6 µM |  |
| CN1C(=O)/C(=C/C(=O)c2ccc(F)cc2)c2ccccc21 [Compound 13] | 12.5 ± 2.4 µM | 28.6 ± 1.2 µM | 18.7 ± 3.56 µM | 29 ± 1.4 µM | 11.9 ± 0.5 µM |  |
| CN1C(=O)/C(=C/C(=O)c2cccc(Cl)c2)c2ccccc21 [Compound 14] | 23 ± 4.5 µM | 84.3 ± 5.8 µM | 18.4 ± 2.2 µM | 26.9 ± 1.5 µM | 15.6 ± 1.1 µM |  |
| CN1C(=O)/C(=C/C(=O)c2ccc(Cl)cc2)c2ccccc21 [Compound 15] | 20.9 ± 3 µM | 92 ± 1.2 µM | 16.9 ± 3.4 µM | 28.6 ± 1.4 µM | 12.4 ± 2.8 µM |  |
| CN1C(=O)/C(=C/C(=O)c2ccccc2C(F)(F)F)c2ccccc21 [Compound 16] | 15.8 ± 1 µM | 27.7 ± 1.9 µM | 28.9 ± 0.2 µM | 27.7 ± 3.1 µM | 19.5 ± 1.3 µM |  |
| CN1C(=O)/C(=C/C(=O)c2cccc(C(F)(F)F)c2)c2ccccc21 [Compound 17] | 17.9 ± 0.4 µM | 89.6 ± 3.6 µM | 34.2 ± 18.2 µM | 26.2 ± 2.1 µM | 16.1 ± 2.2 µM |  |
| CN1C(=O)/C(=C/C(=O)c2ccc(C(F)(F)F)cc2)c2ccccc21 [Compound 18] | 44.4 ± 0.1 µM | 89.8 ± 5.1 µM | > 100 µM | 90.5 ± 7.3 µM | 15.7 ± 1.7 µM |  |
| CN1C(=O)/C(=C\C(=O)c2ccc(Cl)cc2)c2ccccc21 [Compound 20] | 20.4 ± 3.5 µM | 91.7 ± 2 µM | 15.9 ± 2.9 µM | 28.7 ± 2.4 µM | 16.1 ± 2.4 µM |  |
| O=C1C=CC(=O)c2c(O)cccc21 [juglone] |  |  |  |  |  | markedly increased |
